Columns and labels:
[1] = target: T1, recombinant human MetAP2 (Homo sapiens, UniProt P50579); test: Inhibition of recombinant human MetAP2 activity (MAS peptide / amino acid oxidase / Amplex assay); assay type: biochemical; conditions: Flag tagged human recombinant MetAP2, 25 minutes at 25° C.; read-out: MetAP2 IC50
T1 construct: Flag; made in house

[2] = test system: Diet Induced Obese (DIO) C57BL/6 mice; test: 10 day DIO mouse model, weight loss vs. vehicle; assay type: in vivo; conditions: 240 h, 0.3 mpk sc once a day for 10 days
[3] = test system: human fibrosarcoma cell line HT-1080; test: HT-1080 cell growth inhibition (CellTiter-Glo, 72 hours); assay type: cell-based; conditions: HT-1080 cells, 72 hours incubation
Method: The human fibrosarcoma cell line HT-1080 were grown to almost complete confluence in T75 tissue culture flasks in preparation for the experiment. The cells were trypsinised and re-suspended in complete medium using DMEM plus 9% FBS including penicillin/streptomycin supplements. 500 cells in a total volume of 25 μl were seeded into black walled 384 well plates and returned to a CO2 incubator over-night. Compounds and standards were prepared at 333.3× actual test concentration in neat DMSO. 10 point dose response curves of test compounds were generated by 1:3 serial dilutions, 2 μl of DMSO stock was transferred to 109 μl complete medium. This was further diluted 1:6 in complete medium, with 5 μl of the resulting solution added to the incubated 384 well plate. […] For experimental blanks at the start of the experiment, CellTiter-Glo was added to a satellite plate of cells (identical to the experimental plate), when adding compounds on Day 1. The average of these wells is used as the blanks in the calculation template. […] Luminescence per well was determined using an EnVision 2104 Multilabel Reader (PerkinElmer) or other suitable reader. The compound blank value recorded on Day 1 is subtracted from all other data. […] The EC50 values are determined from a sigmoidal 4 parameter curve fit using XLfit in conjunction with Activity Base (IDBS; Guildford, Surrey, UK). […]

[4] = test system: pregnant Sprague Dawley rats (embryo/fetal development); test: Rat embryofetal development study; assay type: in vivo; conditions: 6 mpk subcutaneously once every three days, Gestation Days 6-18, pregnant rats
From the text: Study Summary Rat Embryofetal:
The objective of this study design was to evaluate the potential effects of disclosed compounds on embryo/fetal development when given subcutaneously to pregnant rats once every three days during the critical period of organogenesis (Gestation Days 6-18). Female, Sprague Dawley rats, approximately 10 weeks of age, time bred, were ordered from a certified vendor and housed individually housed in stainless steel cages suspended over flush pans, on a 12-hour light-dark cycle (0700-1900) at 20-26° C. and 30-70% humidity. Rats were fed a standard rodent chow and provided water ad libitum. Rats were received and housed in the facility for a period of approximately 1 to 2 days.
Compounds were formulated using 100% DMSO mixed in Sterile Water for Injection, resulting in 2% DMSO solution in water. If necessary, due to limited solubility of a test article, a higher percentage of DMSO solution in water was used. Groups of 8 mated and presumed pregnant female rats were given subcutaneous doses of vehicle or test article, once every three days, beginning on Gestation Day 6 and ending on Gestation Day 18 (Days 6, 9, 12, 15, and 18), maintained two more days, and then euthanized and necropsied on Gestation Day 20. Body weights was recorded for all animals on Gestation Days 5 (purpose of randomization), 6, 9, 12, 15, 18, and 20 (scheduled euthanasia). Food consumption by weight was recorded on Gestation Days 6, 9, 12, 15, 18, and 20 (scheduled termination).
At necropsy, the dams were examined visually for external abnormalities including palpable masses. The abdominal, thoracic, and cranial cavities and their contents were examined for abnormalities and findings will be recorded. The reproductive tract were examined to record the number of ovarian corpora lutea, the number and location of uterine implantation sites noting the position of the cervix, and the number of early resorptions, late resorptions, live fetuses, and dead fetuses. For dead fetuses and late resorptions, crown-to-rump length and weight were recorded, if possible, and the fetus was discarded. For viable fetuses, weight, sex, and grossly visible external abnormalities were recorded.

[5] = test system: rat DIO model (Sprague Dawley rats on high fat diet); test: 11 day rat DIO model, weight loss vs. vehicle; assay type: in vivo; conditions: Rattus norvegicus, 264 h, 0.3 mpk sc once a day for 11 days
From the text: The objective of this study design is to investigate the efficacy of disclosed compounds in an 11 day rat DIO model used to screen compounds for pharmacologic efficacy on endpoints related to obesity and metabolism. Effects on body weight, food intake, hematology and blood chemistries were the primary readouts of this study design. Male Sprague Dawley rats, approximately 8 weeks of age, were ordered from a certified vendor and housed on irradiated corncob bedding in micro-isolator cages, on a 12-hour light-dark cycle (0700-1900) at 68-74° F. and 30-70% humidity. Rats were fed Research Diets D12451 (45% High Fat) and provided water ad libitum. Rats were received and housed in the facility for at least two or three weeks prior to start of test article administration. On Day −4 or −3, rats were randomized into study groups based on body weight and body weights were continued to be recorded daily for the duration of the study. Daily food intake was assessed starting on Study Day −2 by weighing the hopper including the food to avoid loss of food in transfer.
Compounds were formulated into a 100% DMSO stock (at 9 mg/mL) prior to the start, and further diluted into the target working concentration using the vehicle of 10% DMSO in water. Prior to test article administration, starting on Day −3 a dosing acclimation occured with all animals receiving a subcutaneous injection of vehicle (10% DMSO) only for 3 days. Starting on Day 1, test compounds or vehicle were administered based on individual body weight, subcutaneously, once a day for 11 days. All animals were sacrificed on Day 11, approximately 2 hours following the final dosing on Day 11. After sacrifice, whole blood was collected and analyzed for hematology and blood chemistry parameters.
Compounds were tested for weight loss vs. vehicle at 0.3 and 1.0 mpk sc (mg per kg animal weight delivered subcutaneously), and the results are shown in Table 2 below.

T1 sequence (P50579 whole entry): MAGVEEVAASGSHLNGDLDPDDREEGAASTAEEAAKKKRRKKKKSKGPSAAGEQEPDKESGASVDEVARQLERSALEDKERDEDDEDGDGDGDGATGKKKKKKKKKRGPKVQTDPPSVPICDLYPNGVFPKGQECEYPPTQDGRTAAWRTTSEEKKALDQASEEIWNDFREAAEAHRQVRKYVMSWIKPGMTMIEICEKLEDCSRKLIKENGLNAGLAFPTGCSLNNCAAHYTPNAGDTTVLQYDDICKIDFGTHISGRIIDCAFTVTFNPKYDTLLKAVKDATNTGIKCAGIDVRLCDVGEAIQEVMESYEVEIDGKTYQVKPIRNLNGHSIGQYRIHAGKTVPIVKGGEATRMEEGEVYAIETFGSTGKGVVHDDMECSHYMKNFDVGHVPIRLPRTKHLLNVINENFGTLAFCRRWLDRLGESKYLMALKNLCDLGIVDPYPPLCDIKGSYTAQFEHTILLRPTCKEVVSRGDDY

| SMILES | IC50 [1] [nM] | inhibition in vivo at 0.3 mg/kg [2] [%] | EC50 [3] [nM] | Rat Embryofetal @6 mpk [4] | inhibition in vivo at 0.3 mg/kg [5] [%] |
| --- | --- | --- | --- | --- | --- |
| CO[C@@H]1[C@H](OC(=O)N2CCC3(COC3)C2)CC[C@]2(CO2)[C@H]1[C@@]1(C)O[C@@H]1CC=C(C)C [Example 4, (3R,4S,5S,6R)-5-methoxy-4-((2R,3R)-2-methyl-3-(3-methylbut-2-en-1-yl)oxiran-2-yl)-1-oxaspiro[2.5]octan-6-yl 2-oxa-6-azaspiro[3.4]octane-6-carboxylate] | < 50 | 15.4 | < 0.5 | Negative | – |
| CO[C@@H]1[C@H](OC(=O)/C=C/c2ccc(OCCN(C)C)cc2)CC[C@]2(CO2)[C@H]1[C@@]1(C)O[C@@H]1CC=C(C)C [compound A, [(3R,6R,7S,8S)-7-methoxy-8-[(2R,3R)-2-methyl-3-(3-methylbut-2-enyl)oxiran-2-yl]-2-oxaspiro[2.5]octan-6-yl] (E)-3-[4-[2-(dimethylamino)ethoxy]phenyl]prop-2-enoate, reference compound] | – | 18 | 0.5 to 1 | Positive | 20 |

From US9944613B2, “Fumagillol spirocyclic compounds and fused bicyclic compounds and methods of making and using same” (Zafgen, Inc., priority 2015, dated 2018)
